Laboratory results taken from patent US9073855B2, “BCL-2 selective apoptosis-inducing agents for the treatment of cancer and immune diseases” (AbbVie Inc., priority 2008, dated 2015).
pEC50, pKi: −log10 of the molar value.

Experiments:
Canine platelets = test: Platelet cell viability assay (platelet-rich plasma, Cell Titer Glo); format: cell-based; conditions: Canis lupus familiaris, 5 h, isolated canine platelets ex vivo, five hours at 37° C.
Method: After the incubation, platelets were equilibrated to room temperature for 20 minutes and then an equal volume of Cell Titer Glo reagent (Promega Corporation) was added. Samples were mixed for two minutes and then allowed to equilibrate for an additional 10 minutes at room temperature. The luminescence generated from the samples was quantitated using an LJL Analyst plate reader.
The effect of compounds on platelet survival can be directly evaluated ex vivo by examining the viability of isolated canine platelets in the presence of various concentrations of compound.

FL5.12/Bcl-2 cells = test: FL5.12/Bcl-2 cell viability assay under IL-3 withdrawal (CellTitre Glo); format: cell-based, murine; conditions: Mus musculus, IL-3 withdrawn 48 hrs, then 24 hrs with compound
Procedure, shortened: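 Viability measured with CellTiter-Glo after 24 h compound treatment at various concentrations, following 48 h IL-3 withdrawal (no WEHI-3B medium). Cells: prolymphocytic mouse FL5.12 line stably transfected to overexpress Bcl-2, cultured at 37 °C, 5% CO2.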

GST-Bcl-2 = GST-Bcl-2 (Homo sapiens, UniProt P10415); test: TR-FRET binding assay, GST-Bcl-2 with F-Bak peptide probe; conditions: TR-FRET Binding Affinity, GST-Bcl-2, F-Bak peptide probe
Sequence of GST-Bcl-2 (P10415 whole entry): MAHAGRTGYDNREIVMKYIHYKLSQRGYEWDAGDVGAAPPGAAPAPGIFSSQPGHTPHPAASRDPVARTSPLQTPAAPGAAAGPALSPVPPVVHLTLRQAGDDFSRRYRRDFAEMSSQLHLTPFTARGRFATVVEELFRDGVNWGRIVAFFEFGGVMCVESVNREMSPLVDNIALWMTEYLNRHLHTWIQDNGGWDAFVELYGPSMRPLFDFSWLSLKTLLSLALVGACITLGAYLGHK
Procedure, shortened: (§1)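 Displacement of a fluorescein-labelled Bak peptide from the GST-tagged protein was followed by time-resolved FRET with a terbium anti-GST donor after 3 h incubation at room temperature. Inhibition constants were calculated with Wang's equation.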

GST-Bcl-XL = GST-Bcl-XL (Homo sapiens, UniProt Q07817); test: TR-FRET binding assay, GST-Bcl-XL with F-Bak peptide probe; conditions: TR-FRET Binding Affinity, GST-Bcl-XL, F-Bak peptide probe
Sequence of GST-Bcl-XL (Q07817 whole entry): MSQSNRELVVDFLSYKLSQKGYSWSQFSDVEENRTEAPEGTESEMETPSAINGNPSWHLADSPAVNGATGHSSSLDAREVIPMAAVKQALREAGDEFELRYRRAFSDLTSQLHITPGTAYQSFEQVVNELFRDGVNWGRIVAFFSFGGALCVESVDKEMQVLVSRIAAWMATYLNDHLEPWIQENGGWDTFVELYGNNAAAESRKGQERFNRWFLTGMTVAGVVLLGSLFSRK
Procedure, shortened: as §1

Structure (SMILES): CC1(C)CCC(CN2CCN(c3ccc(C(=O)NS(=O)(=O)c4ccc(NCCCN5CCOCC5)c([N+](=O)[O-])c4)c(Oc4ccc5c(c4)CCCN5)c3)CC2)=C(c2ccc(Cl)cc2)C1 [Example 22, 4-(4-{[2-(4-chlorophenyl)-4,4-dimethylcyclohex-1-en-1-yl]methyl}piperazin-1-yl)-N-({4-[(3-morpholin-4-ylpropyl)amino]-3-nitrophenyl}sulfonyl)-2-(1,2,3,4-tetrahydroquinolin-6-yloxy)benzamide]
- pEC50 (Canine platelets): < 4.30
- pEC50 (FL5.12/Bcl-2 cells): 6.08
- pKi (GST-Bcl-2): 8.21
- pKi (GST-Bcl-XL): 6.90

Structure (SMILES): CN1CCC(Nc2ccc(S(=O)(=O)NC(=O)c3ccc(N4CCN(CC5=C(c6ccc(Cl)cc6)CC(C)(C)CC5)CC4)cc3Oc3ccc4c(c3)CCCN4)cc2[N+](=O)[O-])CC1 [Example 23, 4-(4-{[2-(4-chlorophenyl)-4,4-dimethylcyclohex-1-en-1-yl]methyl}piperazin-1-yl)-N-({4-[(1-methylpiperidin-4-yl)amino]-3-nitrophenyl}sulfonyl)-2-(1,2,3,4-tetrahydroquinolin-6-yloxy)benzamide]
- pEC50 (Canine platelets): < 4.30
- pEC50 (FL5.12/Bcl-2 cells): 5.84
- pKi (GST-Bcl-2): 8.18
- pKi (GST-Bcl-XL): 6.78

Structure (SMILES): O=C(NS(=O)(=O)c1ccc(NCC2CCOCC2)c([N+](=O)[O-])c1)c1ccc(N2CCN(Cc3cc(CN4CCCC4)ccc3-c3ccc(Cl)cc3)CC2)cc1Oc1cccc2[nH]ccc12 [Example 24, 4-(4-{[4′-chloro-4-(pyrrolidin-1-ylmethyl)-1,1′-biphenyl-2-yl]methyl}piperazin-1-yl)-2-(1H-indol-4-yloxy)-N-({3-nitro-4-[(tetrahydro-2H-pyran-4-ylmethyl)amino]phenyl}sulfonyl)benzamide]
- pEC50 (Canine platelets): < 4.30
- pEC50 (FL5.12/Bcl-2 cells): 7.26
- pKi (GST-Bcl-2): 9.71
- pKi (GST-Bcl-XL): < 6.18

Structure (SMILES): O=C(NS(=O)(=O)c1ccc(NCC2CCOCC2)c([N+](=O)[O-])c1)c1ccc(N2CCN(Cc3cc(CCN4CCCC4)ccc3-c3ccc(Cl)cc3)CC2)cc1Oc1cccc2[nH]ccc12 [Example 25, 4-(4-{[4′-chloro-4-(2-pyrrolidin-1-ylethyl)-1,1′-biphenyl-2-yl]methyl}piperazin-1-yl)-2-(1H-indol-4-yloxy)-N-({3-nitro-4-[(tetrahydro-2H-pyran-4-ylmethyl)amino]phenyl}sulfonyl)benzamide]
- pEC50 (Canine platelets): < 4.30
- pEC50 (FL5.12/Bcl-2 cells): 7.31
- pKi (GST-Bcl-2): 10.30
- pKi (GST-Bcl-XL): 6.69

Structure (SMILES): CC1(C)CCC(CN2CCN(c3ccc(C(=O)NS(=O)(=O)c4ccc(NC5CCN(C6CCCC6)CC5)c([N+](=O)[O-])c4)c(Oc4ccc5[nH]ccc5c4)c3)CC2)=C(c2ccc(Cl)cc2)C1 [Example 26, 4-(4-{[2-(4-chlorophenyl)-4,4-dimethylcyclohex-1-en-1-yl]methyl}piperazin-1-yl)-N-({4-[(1-cyclopentylpiperidin-4-yl)amino]-3-nitrophenyl}sulfonyl)-2-(1H-indol-5-yloxy)benzamide]
- pEC50 (Canine platelets): < 4.30
- pEC50 (FL5.12/Bcl-2 cells): 7.46
- pKi (GST-Bcl-2): 9.85
- pKi (GST-Bcl-XL): < 6.18

Structure (SMILES): O=C(NS(=O)(=O)c1ccc(NCC2CCOCC2)c([N+](=O)[O-])c1)c1ccc(N2CCN(Cc3ccccc3-c3ccc(Cl)cc3)CC2)cc1Oc1ccc2[nH]ccc2c1 [Example 40, 4-{4-[(4′-chloro-1,1′-biphenyl-2-yl)methyl]piperazin-1-yl}-2-(1H-indol-5-yloxy)-N-({3-nitro-4-[(tetrahydro-2H-pyran-4-ylmethyl)amino]phenyl}sulfonyl)benzamide]
- pEC50 (Canine platelets): < 4.30
- pEC50 (FL5.12/Bcl-2 cells): 6.78
- pKi (GST-Bcl-2): 9.27
- pKi (GST-Bcl-XL): < 6.18

Structure (SMILES): O=C(NS(=O)(=O)c1ccc(NCC2CCOCC2)c([N+](=O)[O-])c1)c1ccc(N2CCN(Cc3ccccc3-c3ccc(Cl)cc3)CC2)cc1Oc1cccc2[nH]ccc12 [Example 45, 4-{4-[(4′-chloro-1,1′-biphenyl-2-yl)methyl]piperazin-1-yl}-2-(1H-indol-4-yloxy)-N-({3-nitro-4-[(tetrahydro-2H-pyran-4-ylmethyl)amino]phenyl}sulfonyl)benzamide]
- pEC50 (Canine platelets): < 4.30
- pEC50 (FL5.12/Bcl-2 cells): 6.86
- pKi (GST-Bcl-2): 9.08
- pKi (GST-Bcl-XL): < 6.18

Structure (SMILES): CN(C)CCCNc1ccc(S(=O)(=O)NC(=O)c2ccc(N3CCN(Cc4ccccc4-c4ccc(Cl)cc4)CC3)cc2Oc2cccc3[nH]ccc23)cc1[N+](=O)[O-] [Example 46, 4-{4-[(4′-chloro-1,1′-biphenyl-2-yl)methyl]piperazin-1-yl}-N-[(4-{[3-(dimethylamino)propyl]amino}-3-nitrophenyl)sulfonyl]-2-(1H-indol-4-yloxy)benzamide]
- pEC50 (Canine platelets): 4.52
- pEC50 (FL5.12/Bcl-2 cells): 7.39
- pKi (GST-Bcl-2): 9.80
- pKi (GST-Bcl-XL): 7.72

Structure (SMILES): CC1(C)CCC(CN2CCN(c3ccc(C(=O)NS(=O)(=O)c4ccc(NCCCN5CCOCC5)c([N+](=O)[O-])c4)c(Oc4ccc5[nH]ccc5c4)c3)CC2)=C(c2ccc(Cl)cc2)C1 [Example 52, 4-(4-{[2-(4-chlorophenyl)-4,4-dimethylcyclohex-1-en-1-yl]methyl}piperazin-1-yl)-2-(1H-indol-5-yloxy)-N-({4-[(3-morpholin-4-ylpropyl)amino]-3-nitrophenyl}sulfonyl)benzamide]
- pEC50 (Canine platelets): < 4.30
- pEC50 (FL5.12/Bcl-2 cells): 7.80
- pKi (GST-Bcl-2): 9.62
- pKi (GST-Bcl-XL): 7.10

Structure (SMILES): CN(C)CCCNc1ccc(S(=O)(=O)NC(=O)c2ccc(N3CCN(CC4=C(c5ccc(Cl)cc5)CC(C)(C)CC4)CC3)cc2Oc2ccc3[nH]ccc3c2)cc1[N+](=O)[O-] [Example 53, 4-(4-{[2-(4-chlorophenyl)-4,4-dimethylcyclohex-1-en-1-yl]methyl}piperazin-1-yl)-N-[(4-{[3-(dimethylamino)propyl]amino}-3-nitrophenyl)sulfonyl]-2-(1H-indol-5-yloxy)benzamide]
- pEC50 (Canine platelets): 4.74
- pEC50 (FL5.12/Bcl-2 cells): 7.96
- pKi (GST-Bcl-2): 10.09
- pKi (GST-Bcl-XL): 8.31

Structure (SMILES): CC1(C)CCC(c2ccc(Cl)cc2)=C(CN2CCN(c3ccc(C(=O)NS(=O)(=O)c4ccc(NCCCN5CCOCC5)c([N+](=O)[O-])c4)c(Oc4cccc5[nH]ccc45)c3)CC2)C1 [Example 54, 4-(4-{[2-(4-chlorophenyl)-5,5-dimethylcyclohex-1-en-1-yl]methyl}piperazin-1-yl)-2-(1H-indol-4-yloxy)-N-({4-[(3-morpholin-4-ylpropyl)amino]-3-nitrophenyl}sulfonyl)benzamide]
- pEC50 (Canine platelets): < 4.30
- pEC50 (FL5.12/Bcl-2 cells): 7.19
- pKi (GST-Bcl-2): 9.12
- pKi (GST-Bcl-XL): 7.09

Structure (SMILES): CC1(C)CCC(CN2CCN(c3ccc(C(=O)NS(=O)(=O)c4ccc(NCCCN5CCOCC5)c([N+](=O)[O-])c4)c(Oc4cccc5[nH]ccc45)c3)CC2)=C(c2ccc(Cl)cc2)C1 [Example 55, 4-(4-{[2-(4-chlorophenyl)-4,4-dimethylcyclohex-1-en-1-yl]methyl}piperazin-1-yl)-2-(1H-indol-4-yloxy)-N-({4-[(3-morpholin-4-ylpropyl)amino]-3-nitrophenyl}sulfonyl)benzamide]
- pEC50 (Canine platelets): 4.44
- pEC50 (FL5.12/Bcl-2 cells): 7.66
- pKi (GST-Bcl-2): 9.71
- pKi (GST-Bcl-XL): 7.60

Structure (SMILES): CN(C)CCCNc1ccc(S(=O)(=O)NC(=O)c2ccc(N3CCN(CC4=C(c5ccc(Cl)cc5)CCC(C)(C)C4)CC3)cc2Oc2cccc3[nH]ccc23)cc1[N+](=O)[O-] [Example 56, 4-(4-{[2-(4-chlorophenyl)-5,5-dimethylcyclohex-1-en-1-yl]methyl}piperazin-1-yl)-N-[(4-{[3-(dimethylamino)propyl]amino}-3-nitrophenyl)sulfonyl]-2-(1H-indol-4-yloxy)benzamide]
- pEC50 (Canine platelets): 4.57
- pEC50 (FL5.12/Bcl-2 cells): 7.31
- pKi (GST-Bcl-2): 9.57
- pKi (GST-Bcl-XL): 7.89

Structure (SMILES): CN(C)CCCNc1ccc(S(=O)(=O)NC(=O)c2ccc(N3CCN(CC4=C(c5ccc(Cl)cc5)CC(C)(C)CC4)CC3)cc2Oc2cccc3[nH]ccc23)cc1[N+](=O)[O-] [Example 57, 4-(4-{[2-(4-chlorophenyl)-4,4-dimethylcyclohex-1-en-1-yl]methyl}piperazin-1-yl)-N-[(4-{[3-(dimethylamino)propyl]amino}-3-nitrophenyl)sulfonyl]-2-(1H-indol-4-yloxy)benzamide]
- pEC50 (Canine platelets): 4.77
- pEC50 (FL5.12/Bcl-2 cells): 7.80
- pKi (GST-Bcl-2): 10.17
- pKi (GST-Bcl-XL): 8.33

Structure (SMILES): COc1ccc(C2=C(CN3CCN(c4ccc(C(=O)NS(=O)(=O)c5ccc(NCCCN6CCCC6)c([N+](=O)[O-])c5)c(Oc5cccc6[nH]ccc56)c4)CC3)CCC(C)(C)C2)cc1 [Example 68, 2-(1H-indol-4-yloxy)-4-(4-{[2-(4-methoxyphenyl)-4,4-dimethylcyclohex-1-en-1-yl]methyl}piperazin-1-yl)-N-({3-nitro-4-[(3-pyrrolidin-1-ylpropyl)amino]phenyl}sulfonyl)benzamide]
- pEC50 (Canine platelets): < 4.30
- pEC50 (FL5.12/Bcl-2 cells): 7.36
- pKi (GST-Bcl-2): 8.91
- pKi (GST-Bcl-XL): 7.85

Structure (SMILES): CC1(C)CCC(CN2CCN(c3ccc(C(=O)NS(=O)(=O)c4ccc(NCCCN5CCCC5)c([N+](=O)[O-])c4)c(Oc4cccc5[nH]ccc45)c3)CC2)=C(c2ccc(C(F)(F)F)cc2)C1 [Example 69, 4-[4-({4,4-dimethyl-2-[4-(trifluoromethyl)phenyl]cyclohex-1-en-1-yl}methyl)piperazin-1-yl]-2-(1H-indol-4-yloxy)-N-({3-nitro-4-[(3-pyrrolidin-1-ylpropyl)amino]phenyl}sulfonyl)benzamide]
- pEC50 (Canine platelets): < 4.30
- pEC50 (FL5.12/Bcl-2 cells): 7.12
- pKi (GST-Bcl-2): 8.90
- pKi (GST-Bcl-XL): 7.04
